This note sets out measurements from patent US20090239858A1, “THERAPEUTIC AMIDES” (ALLERGAN, INC., priority 2008, published 2009).

In this assay the test system is lashes and adjacent hairs of patients. Briefly: Eyelash and hair growth observed in glaucoma patients treated in one eye. The following applies: glaucoma patients treated in only one eye. Type of assay: in vivo, human. An excerpt:
In the course of treating patients having glaucoma, treatment may only be appropriate in one eye. […] The lash appearance on the lids of the treated eyes would have appeared quite attractive if it represented a bilateral phenomenon. As a result of its asymmetric nature, the long lashes on one side could be construed as disturbing from a cosmetic standpoint. A systemic examination was preformed as a result of the asymmetric phenomenon. It soon became apparent that this altered appearance was not an isolated finding. […] Definite differences could be identified to varying degrees in the lashes and adjacent hairs of all patients who were taking the drug on a unilateral basis for longer than 6 months.
The changes in the lashes were apparent on gross inspection in several patients once attention was focused on the issue. In those with light colored hair and lashes, the differences were only seen easily with the aid of the high magnification and lighting capabilities of the slit lamp biomicroscope. In the course of glaucoma follow-up examination, attention is generally immediately focused on the eye itself. As a result of the high power magnification needed only one eye is seen at a time and the eye is seen at a high enough power that the lashes are not in focus. […]

Turning to `CCNC(=O)CCC/C=C\C[C@@H]1[C@@H](/C=C/[C@@H](O)CCc2ccccc2)[C@H](O)C[C@@H]1O` [bimatoprost], the “lash appearance in treated eye versus non-treated eye” value was “longer, thicker, and fuller”.
